Source: patent US20240239755A1, “SUBSTITUTED PYRIDAZINONES, SALTS OR N-OXIDES THEREOF AND THEIR USE AS HERBICIDALLY ACTIVE SUBSTANCES” (Bayer Aktiengesellschaft, priority 2021, published 2024)

Columns and labels:
Format in all cases: in vivo
[1] = tested on: Stellaria media (STEME); assay: Herbicidal pre-emergence action, 1280 g/ha (Table A9); settings: visual grading after ca. 3 weeks vs untreated controls
Procedure, shortened: (§1)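 Pre-emergence soil-surface spray, sandy loam, mono-/dicot double sowings per pot; WP or EC formulations, aqueous, +0.5% additive, 600 L/ha water. Greenhouse, optimum conditions. Visual % damage vs untreated at ca. 3 wk (100% = dead).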

[2] = tested on: Echinochloa crus-galli (ECHCG); assay: Herbicidal post-emergence action, 1280 g/ha (Table B3); settings: visual assessment after ca. 3 weeks vs untreated controls
Procedure, shortened: (§2)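 Visual percent damage relative to untreated plants (100% dead, 0% no effect) was rated about 3 weeks after treatment in the greenhouse. WP or EC preparations with 0.5% additive were applied at 600 L water/ha onto single-leaf-stage plants grown 2–3 weeks in sandy loam pots.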

[3] = tested on: Poa annua (POAAN); assay: Herbicidal post-emergence action, 1280 g/ha (Table B7); settings: visual assessment after ca. 3 weeks vs untreated controls
Text: (§3) Seeds of mono- and dicotyledonous weed plants were sown in plastic pots (double sowings with one species of mono- and one species of dicotyledonous weed plants per pot), in sandy loam, covered with soil and grown under controlled growth conditions. 2 to 3 weeks after sowing, the test plants were sprayed in the single-leaf stage. The compounds according to the invention, formulated in the form of wettable powders (WP) or as emulsifiable concentrates (EC), were sprayed onto the green plant parts as an aqueous suspension or as an emulsion, with the addition of 0.5% of an additive, at an application rate of 600 litres of water per hectare (converted). The test plants were placed in the greenhouse for ca. 3 weeks under optimum growth conditions, and then the effect of the preparations was assessed visually in comparison with untreated controls (herbicidal effect in percent (%): 100% effect=plants have died, 0% effect=as control plants). Tables B1 to B11 below, show the effects of selected compounds of the general formula (I) according to Table 1 on various harmful plants using an application rate corresponding to 1280 g/ha obtained by the experimental procedure mentioned above.

[4] = tested on: Abutilon theophrasti (ABUTH); assay: Herbicidal post-emergence action, 320 g/ha, ABUTH; settings: visual grading after ca. 3 weeks
Procedure, shortened: (§4)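 Post-emergence spray at single-leaf stage; WP/EC in aqueous suspension/emulsion, 0.5% additive, 600 L water/ha. Greenhouse ~3 wk, visual rating vs untreated: 0% = as control, 100% = plants dead.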

[5] = tested on: Kochia scoparia (KCHSC); assay: Herbicidal post-emergence action, 1280 g/ha (Table B4); settings: visual assessment after ca. 3 weeks vs untreated controls
Procedure, shortened: as §2

[6] = tested on: Matricaria inodora (MATIN); assay: Herbicidal post-emergence action, 1280 g/ha (Table B6); settings: visual assessment after ca. 3 weeks vs untreated controls
Procedure, shortened: as §2

[7] = tested on: Stellaria media (STEME); assay: Herbicidal post-emergence action, 1280 g/ha (Table B9); settings: visual assessment after ca. 3 weeks vs untreated controls
Procedure, shortened: as §2

[8] = tested on: Matricaria inodora (MATIN); assay: Herbicidal post-emergence action, 320 g/ha, MATIN; settings: visual grading after ca. 3 weeks
Procedure, shortened: as §4

[9] = tested on: Kochia scoparia (KCHSC); assay: Herbicidal post-emergence action, 320 g/ha, KCHSC; settings: visual grading after ca. 3 weeks
Procedure, shortened: as §4

[10] = tested on: Lolium rigidum (LOLRI); assay: Herbicidal post-emergence action, 1280 g/ha (Table B5); settings: visual assessment after ca. 3 weeks vs untreated controls
Procedure, shortened: as §2

[11] = tested on: Veronica persica (VERPE); assay: Herbicidal post-emergence action, 1280 g/ha, VERPE; settings: visual grading vs untreated controls
Procedure, shortened: (§5)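 Visual rating ~3 weeks after treatment: 0% equals untreated control, 100% means plants died. Treatment was a 1280 g/ha foliar spray (600 L water/ha, 0.5% additive, WP or EC formulation) applied to single-leaf-stage plants grown 2–3 weeks in sandy loam under controlled conditions.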

[12] = tested on: Lolium rigidum (LOLRI); assay: Herbicidal pre-emergence action, 1280 g/ha (Table A5); settings: visual grading after ca. 3 weeks vs untreated controls
Procedure, shortened: as §1

[13] = tested on: Amaranthus retroflexus (AMARE); assay: Herbicidal post-emergence action, 1280 g/ha, AMARE; settings: visual grading vs untreated controls
Procedure, shortened: as §5

[14] = tested on: Stellaria media (STEME); assay: Herbicidal post-emergence action, 320 g/ha, STEME; settings: visual grading after ca. 3 weeks
Procedure, shortened: as §4

[15] = tested on: Matricaria inodora (MATIN); assay: Herbicidal pre-emergence action, 1280 g/ha (Table A6); settings: visual grading after ca. 3 weeks vs untreated controls
Procedure, shortened: as §1

[16] = tested on: Amaranthus retroflexus (AMARE); assay: Herbicidal post-emergence action, 320 g/ha, AMARE; settings: visual grading after ca. 3 weeks
Procedure, shortened: as §4

[17] = tested on: Abutilon theophrasti (ABUTH); assay: Herbicidal post-emergence action, 1280 g/ha (Table B1); settings: visual assessment after ca. 3 weeks vs untreated controls
Procedure, shortened: as §2

[18] = tested on: Amaranthus retroflexus (AMARE); assay: Herbicidal pre-emergence action, 1280 g/ha (Table A11); settings: visual grading after ca. 3 weeks vs untreated controls
Procedure, shortened: as §1

[19] = tested on: Poa annua (POAAN); assay: Herbicidal pre-emergence action, 1280 g/ha (Table A7); settings: visual grading after ca. 3 weeks vs untreated controls
Procedure, shortened: as §1

[20] = tested on: Veronica persica (VERPE); assay: Herbicidal post-emergence action, 320 g/ha, VERPE; settings: visual grading after ca. 3 weeks
Procedure, shortened: as §4

[21] = tested on: Poa annua (POAAN); assay: Herbicidal pre-emergence action, 320 g/ha, POAAN; settings: visual grading after ca. 3 weeks
Text: (§6) Seeds of mono- and dicotyledonous weed plants were sown in plastic pots (double sowings with one species of mono- and one species of dicotyledonous weed plants per pot), in sandy loam, and covered with soil. The compounds according to the invention, formulated in the form of wettable powders (WP) or as emulsifiable concentrates (EC), were applied to the surface of the covering soil as an aqueous suspension or as an emulsion, with the addition of 0.5% of an additive, at an application rate of 600 litres of water per hectare (converted). Following treatment, the pots were placed in a greenhouse and kept under optimum growth conditions for the test plants. The visual grading of the damage to the test plants was carried out after ca. 3 weeks in comparison to untreated controls (herbicidal effect in percent (%): 100% effect=plants have died, 0% effect=as control plants).
Tables C1 to C6 below, show the effects of selected compounds of the general formula (I) according to Table 1 on various harmful plants using an application rate corresponding to 320 g/ha obtained by the experimental procedure mentioned above.

[22] = tested on: Alopecurus myosuroides (ALOMY); assay: Herbicidal pre-emergence action, 1280 g/ha (Table A2); settings: visual grading after ca. 3 weeks vs untreated controls
Text: as §6, with “plants). Tables A1 to A11 below, show the effects of selected compounds of the general formula (I) according to Table 1 on various harmful plants and an application rate corresponding to 1280 g/ha obtained by the experimental procedure mentioned above.” for “plants).”

[23] = tested on: Lolium rigidum (LOLRI); assay: Herbicidal post-emergence action, 320 g/ha, LOLRI; settings: visual grading after ca. 3 weeks
Procedure, shortened: as §4

[24] = tested on: Echinochloa crus-galli (ECHCG); assay: Herbicidal post-emergence action, 320 g/ha, ECHCG; settings: visual grading after ca. 3 weeks
Text: as §3, with “plants).” for “plants). Tables B1 to B11 below, show the effects of selected compounds of the general formula (I) according to Table 1 on various harmful plants using an application rate corresponding to 1280 g/ha obtained by the experimental procedure mentioned above.”
Tables D1 to D8 below, show the effects of selected compounds of the general formula (I) according to Table 1 on various harmful plants using an application rate corresponding to 320 g/ha obtained by the experimental procedure mentioned above.

[25] = tested on: Lolium rigidum (LOLRI); assay: Herbicidal pre-emergence action, 320 g/ha (Table C2); settings: visual grading after ca. 3 weeks vs untreated controls
Procedure, shortened: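 Herbicidal effect was graded by eye roughly 3 weeks after treatment, from 0% (as control) to 100% (dead plants). Weed seeds sown in sandy loam were covered and sprayed on the soil surface with WP/EC suspensions or emulsions, 0.5% additive, 600 L water/ha, then kept in a greenhouse.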

[26] = tested on: Kochia scoparia (KCHSC); assay: Herbicidal pre-emergence action, 1280 g/ha (Table A4); settings: visual grading after ca. 3 weeks vs untreated controls
Procedure, shortened: as §1

[27] = tested on: Digitaria sanguinalis (DIGSA); assay: Herbicidal pre-emergence action, 1280 g/ha (Table A3); settings: visual grading after ca. 3 weeks vs untreated controls
Text: as §6, with “plants). Tables A1 to A11 below, show the effects of selected compounds of the general formula (I) according to Table 1 on various harmful plants and an application rate corresponding to 1280 g/ha obtained by the experimental procedure mentioned above.” for “plants).”

[28] = tested on: Setaria viridis (SETVI); assay: Herbicidal post-emergence action, 1280 g/ha (Table B8); settings: visual assessment after ca. 3 weeks vs untreated controls
Procedure, shortened: as §2

Compound | herbicidal effect STEME [1] [%] | herbicidal effect ECHCG [2] [%] | herbicidal effect ABUTH [4] [%] | herbicidal effect KCHSC [5] [%] | herbicidal effect MATIN [6] [%] | herbicidal effect STEME [7] [%] | herbicidal effect MATIN [8] [%] | herbicidal effect KCHSC [9] [%] | herbicidal effect LOLRI [10] [%] | herbicidal effect VERPE [11] [%] | herbicidal effect LOLRI [12] [%] | herbicidal effect AMARE [13] [%] | herbicidal effect STEME [14] [%] | herbicidal effect MATIN [15] [%] | herbicidal effect AMARE [16] [%] | herbicidal effect ABUTH [17] [%] | herbicidal effect AMARE [18] [%] | herbicidal effect POAAN [19] [%] | herbicidal effect ECHCG [24] [%] | further results
CCOC(=O)Oc1c(C)nn(C)c(=O)c1Oc1ccccc1Cl [Example I-010] | 90 | 90 | 90 | 100 | 100 | 100 | 100 | 100 | 100 | 90 | 100 | 100 | 100 | 100 | 100 | 100 | 90 | 90 |  | herbicidal effect POAAN [3]: 100%; herbicidal effect VERPE [20]: 90%
Cc1nn(C)c(=O)c(Oc2ccccc2OC(F)(F)F)c1O [Example I-008] |  |  |  |  |  |  |  |  |  |  |  |  |  |  |  |  |  | 100 |  | herbicidal effect POAAN [21]: 100%; herbicidal effect ALOMY [22]: 100%
Cc1nn(C)c(=O)c(Oc2cc(Cl)ccc2Cl)c1O [Example I-016] | 100 | 90 | 100 | 100 | 90 | 100 | 90 | 90 | 90 | 90 | 100 | 100 | 100 | 100 | 100 | 100 | 90 |  | 90 | herbicidal effect LOLRI [23]: 90%; herbicidal effect LOLRI [25]: 90%
Cc1nn(C)c(=O)c(Oc2cc(Cl)c(Cl)c(Cl)c2)c1O [Example I-077] |  | 90 |  |  |  | 100 |  |  |  |  |  |  | 90 | 100 |  |  | 100 | 100 |  | herbicidal effect KCHSC [26]: 90%; herbicidal effect DIGSA [27]: 100%
Cc1nn(C)c(=O)c(Oc2ccc(Cl)cc2Cl)c1OC(=O)C1CCC1 [Example I-064] |  | 100 |  | 100 | 100 | 100 | 90 | 100 |  | 90 |  | 100 | 90 |  | 100 |  |  |  | 100 | herbicidal effect SETVI [28]: 90%
